For one experiment, the target named is EGFR (UniProt P00533).
Chain of EGFR (P00533 whole entry, looked up): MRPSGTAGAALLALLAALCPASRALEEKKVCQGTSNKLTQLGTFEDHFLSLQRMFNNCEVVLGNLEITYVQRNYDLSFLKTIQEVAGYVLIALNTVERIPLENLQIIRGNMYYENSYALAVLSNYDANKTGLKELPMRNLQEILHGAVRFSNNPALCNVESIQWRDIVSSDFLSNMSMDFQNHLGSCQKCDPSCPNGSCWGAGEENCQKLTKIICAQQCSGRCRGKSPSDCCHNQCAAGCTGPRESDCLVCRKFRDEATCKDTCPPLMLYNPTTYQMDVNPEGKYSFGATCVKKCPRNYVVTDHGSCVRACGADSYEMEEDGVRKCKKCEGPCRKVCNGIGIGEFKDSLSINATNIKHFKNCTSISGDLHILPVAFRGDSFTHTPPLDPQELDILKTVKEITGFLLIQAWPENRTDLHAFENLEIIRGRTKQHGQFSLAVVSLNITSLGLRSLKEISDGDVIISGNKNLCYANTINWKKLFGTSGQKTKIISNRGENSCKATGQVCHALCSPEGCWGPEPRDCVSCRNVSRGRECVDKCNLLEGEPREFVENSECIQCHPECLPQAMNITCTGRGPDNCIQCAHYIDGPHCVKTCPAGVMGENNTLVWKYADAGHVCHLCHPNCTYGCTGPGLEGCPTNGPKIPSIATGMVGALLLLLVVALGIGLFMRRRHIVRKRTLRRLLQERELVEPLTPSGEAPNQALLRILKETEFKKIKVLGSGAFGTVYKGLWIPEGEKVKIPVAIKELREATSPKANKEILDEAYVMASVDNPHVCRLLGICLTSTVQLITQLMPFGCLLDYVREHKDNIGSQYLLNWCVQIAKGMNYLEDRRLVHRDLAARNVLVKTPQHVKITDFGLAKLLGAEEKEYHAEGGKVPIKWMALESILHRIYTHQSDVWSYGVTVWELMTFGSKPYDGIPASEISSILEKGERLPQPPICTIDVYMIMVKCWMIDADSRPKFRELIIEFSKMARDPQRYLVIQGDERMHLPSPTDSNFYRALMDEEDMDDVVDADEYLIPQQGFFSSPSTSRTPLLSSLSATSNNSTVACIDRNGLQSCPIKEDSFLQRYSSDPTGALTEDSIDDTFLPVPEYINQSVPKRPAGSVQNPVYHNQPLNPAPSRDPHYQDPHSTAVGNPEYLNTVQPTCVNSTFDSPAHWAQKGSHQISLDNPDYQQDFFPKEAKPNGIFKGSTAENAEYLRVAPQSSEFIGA
Conditions: not given
`CC1C/C(=C2/C(=O)Nc3ccccc32)c2ccccc21` (centres undefined) came in with an IC50 of more than 100 µM.

In turn, `O=C1Nc2ccccc2/C1=C1\CCc2cc(N3CCCCC3)ccc21` showed an IC50 of more than 100 µM.

`O=C1Nc2ccccc2/C1=C1\CCc2cc(Br)ccc21` registered an IC50 of more than 100 µM.

On to `COc1ccc2c(c1)C(CC(=O)O)C/C2=C1/C(=O)Nc2ccccc21` (centres undefined), for which the IC50 is more than 100 µM.

`COc1ccc2c(c1)CC/C2=C1/C(=O)Nc2ccccc21` had an IC50 of more than 100 µM.

In the case of `COc1cc2c(cc1OC)/C(=C1\C(=O)Nc3ccccc31)CC2`, the IC50 is more than 25 µM.

In turn, `Cc1cccc2c1CC/C2=C1/C(=O)Nc2ccccc21` yielded an IC50 of more than 100 µM.

As for `Nc1ccc2c(c1)CC/C2=C1/C(=O)Nc2ccccc21`, the IC50 is more than 100 µM.

`O=C1Nc2ccccc2/C1=C1\CCc2ccccc21` registered an IC50 of more than 100 µM.

Compound `CN(C)c1ccc2c(c1)CC/C2=C1/C(=O)Nc2ccccc21` returned an IC50 of more than 100 µM.

`O=C1Nc2ccccc2/C1=C1\CCc2cc(Cl)ccc21` gave an IC50 of more than 100 µM.

`COc1ccc2c(c1)/C(=C1\C(=O)Nc3ccccc31)CC2` returned an IC50 of more than 100 µM.

In the next experiment the target is EGFR (murine) (UniProt P00533). The settings on record: nih3t3/c7.
Chain of EGFR (murine) (P00533 whole entry, looked up): as above
Regarding `COc1ccc2c(c1)C(CC(=O)O)C/C2=C1/C(=O)Nc2ccccc21` (centres undefined), the 50% inhibitory concentration (IC50) was more than 100 µM.

`O=C1Nc2ccccc2/C1=C1\CCc2ccccc21` returned an IC50 of more than 100 µM.

As a reminder, the IC50 is the concentration that inhibits the measured activity by half. A lower IC50 goes with inhibition by little substance.

The values are drawn from the Kinase Knowledgebase extract (Sharma et al. 2016).
